{"source": "patent US20190388510A1", "about": "“GLUCAGON-T3 CONJUGATES” (priority 2016, published 2019)", "key": {"[1]": {"type": "in vitro ADME, human", "procedure": "Each compound was incubated with phosphate buffered saline (PBS, pH=7.4) containing 60% mouse plasma at 37° C. for the duration of the study. At the time points of 6 h, 24 h and 72 h, aliquots of the incubated solutions were withdrawn and diluted with acetonitrile to precipitate the plasma proteins, which were subsequently removed by microcentrifugation at 13,000 rpm for 5 mins. The supernatant was collected and diluted for the analytical reversed-phase HPLC using a linear gradient of buffer B over buffer A (A: 10% aqueous acetonitrile, 0.1% TFA; B: 90% aqueous acetonitrile, 0.1% TFA) on a Zorbax C8 column (4.6×50 mm). RNA-Seq Total RNAs were extracted from frozen liver samples of 4 independent mice per group (vehicle, glucagon only, T3 only, co-administration of glucagon and T3 and glucagon/T3) using TriPure RNA reagent (Sigma). Poly-A isolation, library generation and amplification were performed according to the protocol of the mRNASeq Library Prep Kit (Lexogen). […] Mapping of color-coded reads on the mouse genome (mm10 assembly) was performed using the Lifescope software (Life Technologies). Reads for annotated (Ensembl) genes were counted using HtSeq. […] The synergy score (SS) was calculated as the relative fold change (FC) of (glucagon/T3) compared to the maximum FC of T3 and glucagon alone: SS=FC (glucagon/T3)/max (T3, glucagon). […]"}, "[2]": {"system": "DIO mice", "experiment": "Cardiac function and histology in DIO mice (echocardiography)", "type": "in vivo, mouse", "conditions": "mouse, in vivo", "procedure": "After chronic treatment, HFHCD-fed or HFHSD-fed C57B16/j male mice (age) were sacrificed with CO2, body weight as well as heart weights and tibia length was taken during necropsy. Livers and whole hearts were embedded in paraffin using a vacuum infiltration processor TissueTEK VIP (Sakura). 3 μm thick slides were cut using a HMS35 rotatory microtome (Zeiss) and H & E staining was performed. For H & E staining, rehydration was done in a decreasing ethanol series, rinsing with tapwater, 2 min Mayers acid Hemalum, bluing in tapwater followed by lmin EosinY (both BioOptica). Dehydration was performed in increasing ethanol series, mounting with Pertex® (Medite GmbH) and coverslips (CarlRoth Chemicals). The slides were evaluated independently using a brightfield microscope (Axioplan, Zeiss). Photos were taken using the Hamamatsu-Nanozoomer HT2.0 in 1.25×, 5×. 20× and 40× magnification. The hepatic steatosis score is defined as the unweighted sum of the three individual scores for steatosis, lobular inflammation and ballooning degeneration. Steatosis is graded by the presence of fat vacuoles in liver cells according to the percentage of affected tissue (0: <5%; 1: 5-33%; 2: 33-66%; 3: >66%). Lobular inflammation is scored by overall assessment of inflammatory foci per 200× field (0: no foci; 1: <2 foci; 2: 2-4 foci; 3: >4 foci). The individual score for ballooning degeneration ranges from 0 (none), 1 (few cells) to 2 (many cells). Total scores range from 0 to 8 with scores <2 considered non-steatosis, 3 considered as borderline steatosis, 4-5 considered onset of steatosis, and >6 considered steatosis. Different to liver and heart, inguinal fat pad samples were embedded in paraffin using Leica embedding machine (EG1150 H) and cut in 5 μm sections using Leica Microtome (RM2255) to perform H&E staining. Samples were stained with hematoxyline for 4 minutes and eosinY for 2 minutes and fixed with Roti®-Histokitt (Carl Roth) before analysing them independently using Microscope Scope A.1 (Zeiss).\nFor transthoracic echocardiography, a Vevo2100 Imaging System (VisualSonics Inc., Toronto Canada) with a 30 MHz probe was used. All echocardiograms were performed on conscious animals to prevent anesthesia-related impairment of cardiac function as reported previously. Briefly, echocardiograms were obtained in parasternal long and short axis views. For accurate linear measurements of LV internal dimensions (LVID) and […] (LVPW) or septal (IVS) wall thicknesses, M-mode images of the heart in parasternal short-axis view at the level of the papillary muscle were acquired. Qualitative and quantitative measurements were made offline using analytical software (VisualSonics Inc.). Fractional shortening (FS) was calculated as FS %=[(LVIDd−LVIDs)/LVIDd]×100. Ejection fraction (EF) was calculated as EF %=100*((LVvolD−LVvolS)/LVvolD) with LVvol=((7.0/(2.4+LVID)*LVID^3). The corrected LV mass (LV MassCor) was calculated as LV MassCor=0.8(1.053*((LVIDd+LVPWd+IVSd)^3−LVIDd^3)). Heart rate and respiration rate were determined from M-mode tracings, using 3 consecutive intervals.\nGene expression profiling in the liver, iWAT, eWAT, BAT, and heart were performed following treatment of mice according to the treatment paradigms explained in the figure legends for each specific analsysis. For tissue collection, mice were fasted for 4 h and treated with compounds 2 h prior to tissue collection. Gene expression was profiled with quantitative real-time RT-PCR using either TaqMan single probes or with specifically-designed TaqMan low-density array cards. The relative expression of the selected genes was normalized to the reference gene hypoxanthine-guanine phosphoribosyltransferase (Hprt)."}, "[3]": {"system": "HFHSD-fed male C57Bl6j mice", "experiment": "Metabolic efficacy of different glucagon/T3 conjugate versions in HFHSD-fed mice", "type": "in vivo, mouse", "conditions": "100 nmol kg-1 daily, 14 days", "source_text": "For studies on lipid handling in wildtype mice (Western mice), male C57Bl/6j mice (Jackson Laboratories) were fed a atherogenic Western diet (Research Diets D12079B), which is a high-cholesterol diet (0.21% gm %) with 41% kcal from fat, 43% kcal from carbohydrates, and 17% kcal from protein. For studies on energy metabolism in obese mice (DIO mice), male C57Bl/6j mice (Jackson Laboratories) were fed a diabetogenic diet (Research Diets D12331), which is a high-sucrose diet with 58% kcal from fat 25.5% kcal from carbohydrates, and 16.4% kcal from protein. Both dietary challenges began at 8 weeks of age. HFHSD and HFHCD mice were single- or group-housed on a 12:12-h light-dark cycle at 22° C. with free access to food and water. Mice were maintained under these conditions for a minimum of 16 weeks before initiation of pharmacological studies and were between the ages of 6 months to 12 months old. All injections and tests were performed during the light cycle. Compounds were administered in a vehicle of 1% Tween-80 and 1% DMSO and were given by daily subcutaneous injections at the indicated doses at a volume of 5 μl per g body weight. Mice were randomized and evenly distributed to test groups according to body weight and body composition. If ex vivo molecular biology/histology/biochemistry analyses were performed, the entire group of mice for each treatment was analyzed and scored in a blinded fashion.\nCompounds were administered by repeated subcutaneous injections in the middle of the light phase at the indicated doses with the indicated durations. Co-administration of compounds was administered by single formulated injections. Body weights and food intake were measured every day or every other day after the first injection. All studies with wild-type mice were performed with a group size of n=8 or greater using mice on a C57B16j background.\nBlood was collected at the indicated times from tail veins or after euthanasia using EDTA-coated microvette tubes (Sarstedt), immediately chilled on ice, centrifuged at 5,000 g and 4° C., and plasma was stored at −80° C. For […] (FPLC) of cholesterol distribution in different lipoprotein fractions, fresh plasma from each treatment group was pooled (n=6-8) and ran over two Superose 6 HR columns in tandem. Cholesterol levels in the collected fractions were determined by colorimetric assay. Plasma insulin and T3 were quantified by an ELISA assay (Ultrasenstive Mouse Insulin ELISA and Rodent T3 ELISA; Alpco). Plasma FGF21 was quantified by an ELISA assay (Mouse FGF21 ELISA; Millipore). Plasma cholesterol, extracted hepatic cholesterol, triglycerides, ALT, and AST were measured using enzymatic assay kits (Thermo Fisher). Plasma creatinine and blood urea nitrogen were measured using enzymatic assay kits (Abcam). Plasma free fatty acids were measured using enzymatic assay kits (Wako). All assays were performed according to the manufacturers' instructions."}}, "note": "*1 amine or outer side, *2 acyl side, *3 side chain or, on linkers, in order; H or OH if unused. Where a SMILES comes first, the peptide text is derived from it. Where no end group is shown, it is not given here. Side-chain parts run from the residue outwards. [ ]: non-standard residue; d: D form. Thyronine(3,5,3'-I3) = N[C@@H](Cc1cc(I)c(Oc2ccc(O)c(I)c2)c(I)c1)C(=O)O; γGlu = O=C(O)[C@H](CCC(=O)[*:2])N[*:1]", "data": [{"molecule": "CSCC[C@H](NC(=O)[C@H](CC(C)C)NC(=O)[C@H](Cc1c[nH]c2ccccc12)NC(=O)[C@H](CCC(N)=O)NC(=O)[C@@H](NC(=O)[C@H](Cc1ccccc1)NC(=O)[C@H](CC(=O)O)NC(=O)[C@H](CCC(N)=O)NC(=O)[C@H](C)NC(=O)[C@H](CCCNC(=N)N)NC(=O)[C@H](CCCNC(=N)N)NC(=O)[C@H](CO)NC(=O)[C@H](CC(=O)O)NC(=O)[C@H](CC(C)C)NC(=O)[C@H](Cc1ccc(O)cc1)NC(=O)[C@H](CCCCN)NC(=O)[C@H](CO)NC(=O)[C@H](Cc1ccc(O)cc1)NC(=O)[C@H](CC(=O)O)NC(=O)[C@H](CO)NC(=O)[C@@H](NC(=O)[C@H](Cc1ccccc1)NC(=O)[C@@H](NC(=O)CNC(=O)[C@H](CCC(N)=O)NC(=O)[C@@H](CO)NC(=O)[C@@H](N)Cc1c[nH]cn1)[C@@H](C)O)[C@@H](C)O)C(C)C)C(=O)N[C@@H](CC(N)=O)C(=O)NCC(=O)NCC(=O)N1CCC[C@H]1C(=O)N[C@@H](CO)C(=O)N[C@@H](CO)C(=O)NCC(=O)N[C@@H](C)C(=O)N1CCC[C@H]1C(=O)N1CCC[C@H]1C(=O)N1CCC[C@H]1C(=O)N[C@@H](CO)C(=O)N[C@@H](CCCCNC(=O)CC[C@H](NC(=O)[C@@H](N)Cc1cc(I)c(Oc2ccc(O)c(I)c2)c(I)c1)C(=O)O)C(N)=O", "note": "[glucagon/T3] (H-H[dS]QGTFTSDYSKYLDSRRAQDFVQWLMNGGPSSGAPPPSK([γGlu-Thyronine(3,5,3'-I3)])-NH2; N-terminus assumed)", "values": [{"measurement": "degradation in plasma", "setting": "[1]", "value": "remains intact with nearly no detectable degradation"}, {"measurement": "heart histology: thyrotoxic cardiomyopathy", "setting": "[2]", "value": "none of these manifestations of thyrotoxicity or thyroid hormone induced cardiomyopathy were detectable"}, {"measurement": "whole heart expression of T3-sensitive genes (Dio2, Ucp2)", "setting": "[2]", "value": "did not appear to be regulated"}, {"measurement": "whole heart expression of hypertrophic gene markers (Nppa, Nppb)", "setting": "[2]", "value": "did not appear to be regulated"}]}, {"molecule": "glucagon/rT3: reverse T3 (rT3) coupled to the glucagon analog with the same linker chemistry as glucagon/T3 (H[dS]QGTFTSDYSKYLDSRRAQDFVQWLMNGGPSSGAPPPSK; not fully specified (residue 40); also: reverse T3 (rT3) coupled with same linker chemistry as glucagon/T3)", "values": [{"measurement": "body weight lowering", "setting": "[3]", "value": "failed to lower body weight"}, {"measurement": "cholesterol lowering effect", "setting": "[3]", "value": "not evident"}, {"measurement": "lipid lowering", "setting": "[3]", "value": "did not lower lipids"}]}, {"molecule": "glucagon/iT3: inverted attachment: amine of T3 covalently linked to the glucagon analog through a succinate spacer at Lys40 (H[dS]QGTFTSDYSKYLDSRRAQDFVQWLMNGGPSSGAPPPSK; not fully specified (residue 40))", "values": [{"measurement": "body weight lowering", "setting": "[3]", "value": "failed to lower body weight"}, {"measurement": "cholesterol lowering effect", "setting": "[3]", "value": "not evident"}, {"measurement": "lipid lowering", "setting": "[3]", "value": "did not lower lipids"}]}]}
